Reference: patent US7470550B2, “Method of evaluating cell activity” (Toyo Advanced Technologies Co., Ltd., priority 2001, dated 2008)

Tests used:
Format in all cases: cell-based
Mast cells = assay: SPR measurement of reaction of mast cells on an antigen
Protocol: (§1) The method of the invention will be explained in more detail by the following examples, which are not intended to limit the scope of the invention. In the following examples, SPR-CELLIA (Japan Laser Electronic Co.) was used as an SPR analyzer. The sensor chip for amine coupling was prepared as follows.
(§2) In 10 μM solution of 4,4-dithiodibutyric acid in ethanol was immersed a sensor chip and stirred for 30 minutes. Thereafter, the chip was washed with dry ethanol and dried. Water-soluble carbodiimide (25 mg) was dissolved in 1 ml of MilliQ water, and 15mg of N-hydroxysuccinimide in 9 ml of 1,4-dioxane, respectively. Both solutions were mixed immediately before the dried sensor chip was immersed therein and the mixture stirred for 10 minutes. Then, there was added 10 ml of MilliQ water, and the mixture was stirred for 5 minutes. The chip was washed with MilliQ water and preserved in MilliQ water.
Mast cells (2×10^5 cells/ml, 70 μl) were immobilized on a sensor chip in the same manner as in Example 1. IgE was added to a measuring portion, and incubated in a CO2 incubator at 37° C. overnight. The chip was set on an SPR analyzer, and a running buffer (PIPES buffer, pH 7.2) was perfused at a flow rate of 15 μl/min at a fixed temperature of 37° C. Then, 60 μl of 100 ng/ml DNP-HSA (dinitrophenyl-human serum albumin) or 10 μg/ml DNP-lysine was injected, while a running buffer was perfused continuously, and the change of signal was measured. The composition of PIPES (piperaine-N,N′-bis[2-ethane-sulfonic acid]; 1,4-piperzine-diethanesulfonic acid) buffer is as shown in Table 1.

CTLL-2 cells = assay: SPR measurement of reaction of CTLL2 cells (suspended cells) with IL-2; settings: living CTLL-2 cells immobilized on sensor chip, 37° C., PBS perfusion 15 μl/min; IL-2 62.5 ng/ml, 60 μl
Source text: In the method of the invention, cells are immobilized on a analyzer in the same manner as in the usual SPR measurement for vial cells, to which a stimulus as mentioned above is given to determine the signal as a change of permittivity in a conventional procedure.
as §1, §2
The suspension (30 μl)of CTLL-2 cells (2×10^5 cells/ml) in PBS were directly placed onto both of sensor chip-measuring portion and control portion, and the chip was blocked with 50 μl of 1% BSA. The sensor chip was equipped in a flow-cell unit of the SPR analyzer, of which the temperature was set at 37° C. and was perfused with PBS at a flow rate of 15 μl/min.

Papilla cells = assay: SPR measurement of reaction of papilla cells (mesenchyme cells) with bFGF, with or without phosphorylation inhibitor; settings: for SPR signal from 10 minutes after the injection: 37° C., 1 μg/ml bFGF alone, or bFGF + 50 μM SU4984
Protocol: as §1, §2
Papilla cells were removed from a petri dish with 0.02% EDTA and suspended in a DMEM10 culture medium. The cells (2×10^5 cells/ml, 400 μl) were immobilized on a sensor chip in the same manner as in Example 1.
PBS was perfused at a flow rate of 15 μl/min at a fixed temperature of 37° C.; 1 μg/ml of bFGF alone was injected into a control portion, and 60 μl of μg/ml bFGF+50 μM phosphorylation inhibitor (SU4984) into a measuring portion; after a lapse of 42 seconds the circuit was closed and the change of signals was measured.

[1] = 60 μl of 100 ng/ml DNP-HSA, PIPES buffer pH 7.2, 37° C.
[2] = 10 μg/ml DNP-lysine, PIPES buffer pH 7.2, 37° C.

## dinitrophenyl-human serum albumin [DNP-HSA]
Mast cells; 100 ng/ml DNP-HSA, IgE sensitized versus unsensitized cells
  primary SPR signal in mast cells (FIG. 3): no primary signal was recorded
Mast cells; [1]
  SPR signal in IgE sensitized mast cells: a strong signal was observed
  SPR signal in IgE unsensitized mast cells: no characteristic change

## aFGF: agent which does not bind to CTLL-2 cells
CTLL-2 cells
  SPR signal (difference between measuring portion and control portion): no signal was observed

## N[C@@H](CCCCNc1ccc([N+](=O)[O-])cc1[N+](=O)[O-])C(=O)O [DNP-lysine]
Mast cells; [2]
  primary SPR signal in mast cells: primary signal generated by the binding of DNP-lysine was observed
  secondary SPR signal in mast cells: no secondary signal observed

## bFGF: growth factor injected onto papilla cells; does not bind to CTLL-2 cells
CTLL-2 cells
  SPR signal (difference between measuring portion and control portion): no signal was observed
Papilla cells
  SPR signal from 10 minutes after the injection: ascended continuously

## O=CN1CCN(c2ccc(/C=C3\C(=O)Nc4ccccc43)cc2)CC1 [SU4984]
Papilla cells
  SPR signal from 10 minutes after the injection: became plateau
Papilla cells; bFGF + 50 μM SU4984
  signal transduction caused by the binding of bFGF: suppressed

B1: pleiotrophin: agent which does not bind to CTLL-2 cells (protein, UniProt P21246 33-168, looked up)
Pleiotrophin: GKKEKPEKKVKKSDCGEWQWSVCVPTSGDCGLGTREGTRTGAECKQTMKTQRCKIPCNWKKQFGAECKYQFQAWGECDLNTALKTRTGSLKRALHNAECQKTVTISKPCGKLTKPKPQAESKKKKKEGKKQEKMLD
CTLL-2 cells
  SPR signal (difference between measuring portion and control portion): no signal was observed
